In PMC9525908, “α-Crystallin chaperone mimetic drugs inhibit lens γ-crystallin aggregation: Potential role for cataract prevention” (The Journal of Biological Chemistry, 2022):
Numbering of substitutions follows the chain as printed. Read-outs that look alike come from different tables or passages of the source.

What was measured:
Type in all cases: biochemical
[1] = system: bovine gamma crystallins; assay: Screen: H2O2 and heat mediated aggregation of bovine gamma crystallins, turbidimetry at 600 nm; settings: bovine γ-crystallin-rich proteins, oxidant stress 24 h and/or thermal stress 72 °C 20 min
Description: For the initial screen, a microtiter plate assay was developed in which bovine crystallins (2 mg/ml of 50 mM K3PO4 buffer, pH 7.2 [buffer A]) were exposed to H2O2 at varying concentrations (1–50 mM) for 12 to 36 h, upon which turbidity developed (at 50 mM H2O2 concentration) in both β- and γ-crystallins (Fig. 1, A and B). […] This was determined by turbidimetry at 600 nm (Fig. 1C) and confirmed using visual assessment of solution transparency over a fine text as well as the presence of cloudy aggregates visible by dark field microscopy (Fig. 1D). The drug:protein stoichiometric ratio was about 5:1. The wavelength of 600 nm was chosen to minimize interference by colored compounds, many of which absorb below 500 nm (Fig. 1E).
Wells were filled with 90 μl calf γ-crystallin-rich protein solution (pool 4 at 2 mg/ml) followed by 0.5 to 5.0 μl of drug (all 10 mM stock solution in DMSO) as supplied by the manufacturer and 10 μl H2O2 (450 mM stock solution in water) and sealed with sticky Applied Biosystems MicroAmp Clear Adhesive films (Life Technologies). Control wells received DMSO only. […] In order to quantitate the impact of the drugs on aggregation, a fitness plot was created (Fig. 1 C) that allowed us to identify wells with enhanced/worsening versus suppressed crystallin aggregation. In addition, aggregation in each well was also visually assessed by two independent “blinded” readers for the ability to read fine print through each well by placing the plates over small font text (Fig. 1D). Both machine and visual readouts were reconciled in order to increase robustness.

[2] = molecular target: T1, HγD (Homo sapiens, UniProt P07320); assay: Thermal aggregation (72 °C) turbidity assay, recombinant HγD; settings: for inhibition at 125 µM / Effect on HγD at 2.0 mg/ml and 20 min: 20 min; for inhibition at 125 µM: 75 μM protein, 125 μM or less inhibitor (1.7:1); for Effect on HγD aggregation at low protein / Effect on HγD at 2.0 mg/ml and 20 min: 72 °C
T1 construct: made in house; host or cells: E. coli BL21(DE3) pLysS, pET3d vector
T1 sequence (P07320 1-174): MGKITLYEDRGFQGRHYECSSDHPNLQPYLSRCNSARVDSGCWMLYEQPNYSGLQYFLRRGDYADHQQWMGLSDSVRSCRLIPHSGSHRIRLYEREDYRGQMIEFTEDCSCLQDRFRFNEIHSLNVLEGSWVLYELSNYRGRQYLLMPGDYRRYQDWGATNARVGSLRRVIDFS
Description: For refinement of the aforementioned screen, these compounds were tested at concentrations varying from 50 to 500 μM and 1.5 mg/ml concentration of recombinant HγD, human gamma S (HγS), its deamidation mutants γS_N14, γS_N76, γS_N143 and its triple mutant γSTM (Fig. 1F). In addition, other drugs and compounds that tested positive in the initial screen were also included, such as escin (E), hematein (I), citric acid (CA), docusate sodium (DS), and sennoside A (S) (Fig. S1B). […] For a review, see the study by Roskamp et al. ([38]). […] Thus, drug C and drug G emerged as the strongest antidenaturation/aggregation and potential anticataract drugs. For the mechanistic studies below these two compounds together with either drug M, chosen mostly as negative control, or the entire set of six compounds were used for comparison purpose, whereby the words “drug” or “compound” are used interchangeably in the studies later.
For end-point assays, HγD and MγS (1 mg/ml, 100 μl) in 50 mM K3PO4 buffer (pH 7.2) in set of triplicates in transparent flat bottom 96-well plates were heated at 72 °C for 20 min in the presence and absence of selected drugs at varying concentrations. Absorbance was measured at 600 nm with a SpectraMax iD5 (Molecular Devices).
HγD protein (2.5 mg/ml buffer A) was incubated at 72 °C for 20 min without or with 100 or 400 μM drug G or C in buffer A. Final DMSO concentration was 5% in all samples. […] Therefore, samples with and without 400 μM drug G were chosen for identification of drug G-induced miscleavage sites upon digestion with 25:1 protein:trypsin ratio (sequencing grade modified trypsin; Promega) in buffer A. After 4 h, samples were frozen at −80 °C until processed for determination of miscleavage sites using proteomics analysis. LC–MS/MS analysis was performed on an Orbitrap Eclipse mass spectrometer (Thermo Fisher Scientific) coupled with a Waters nanoAcquity UPLC system (Waters) in total 90 min run using a linear gradient range from 0 to 42% solvent B (0.1% formic acid in acetonitrile) versus solvent A (0.1% formic acid in water) at a flow rate of 300 nl/min. MS1 full mass spectra were acquired in the Orbitrap mass analyzer at the resolution of 120 K. MS/MS tandem mass spectra were generated in the ion trap mass analyzer by collision-induced dissociation of peptide ions at a normalized collision energy of 35%. The resulting MS/MS spectra were searched against human gamma D protein database using Mass Matrix software (MassMatrix, Inc) with the mass errors of 10 ppm and 0.8 Da for MS1 and MS/MS scans, respectively. The oxidation of methionine was set for variable modifications, and three miscleavages were allowed for the search.
Final DMSO concentration was 5% including in control samples. Microtiter plates were first incubated for 10 min at 72 °C and reincubated for 10 more min. Absorbance was measured at both 10 and 20 min total incubation time.

[3] = molecular target: T2, OPJ-MγS (Mus musculus, UniProt O35486, F10S); assay: Thermal unfolding (Tm), OPJ-MγS; settings: 10 μM protein, 100 μM drug; for Tm (°C) OPJ-MGS N-ter: Con 48; for Tm (°C) OPJ-MGS C-ter: Con 63
T2 construct: made in house; host or cells: E. coli BL21(DE3) pLysS, pET17b vector
T2 sequence (O35486 1-178 F10S): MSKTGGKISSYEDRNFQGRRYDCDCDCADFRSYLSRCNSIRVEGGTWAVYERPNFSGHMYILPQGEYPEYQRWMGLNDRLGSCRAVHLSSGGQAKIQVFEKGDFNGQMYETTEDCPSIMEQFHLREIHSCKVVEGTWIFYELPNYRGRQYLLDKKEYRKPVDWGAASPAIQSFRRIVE
Description: (§1) Thermal denaturation study was monitored using fluorescence spectroscopy. Protein solutions (10 μM) in the presence and absence of drugs or bis-ANS (100 μM) were heated continuously from 30 to 95 °C, and the fluorescence data were collected every 5 °C after 1 min equilibration at the given temperature. Unfolding data were fit to Greene and Pace’s two-state model ([82]) using GraphPad Prism software (GraphPad Software, Inc).

[4] = molecular target: T3, WT-MγS (Mus musculus, UniProt O35486); assay: Thermal unfolding (Tm), WT-MγS; settings: 10 μM protein, 100 μM drug; Con 70
T3 construct: made in house; host or cells: E. coli BL21(DE3) pLysS, pET17b vector
T3 sequence (O35486 1-178): T2 sequence (O35486 1-178 F10S) with S10F
Description: as §1

[5] = HγD experiment 1, 72 °C 20 min, read-out: % Suppression
[6] = HγD experiment 2, 72 °C 20 min, read-out: % Suppression
[7] = read-out: % Suppression, HγD experiment 1, 72 °C 20 min
[8] = read-out: % Suppression, HγD experiment 2, 72 °C 20 min

inhibition at 125 µM [2, 5] [%]	inhibition at 125 µM [2, 6] [%]	SMILES	Antiaggregation activity [1]	Effect on HγD aggregation at low protein ([2]; 400 μM drug)	Effect on HγD at 2.0 mg/ml and 20 min ([2]; 400 μM drug)	inhibition at 125 µM [2, 7] [%]	inhibition at 125 µM [2, 8] [%]	Tm (°C) OPJ-MGS N-ter [3] [°C]	Tm (°C) OPJ-MGS C-ter [3] [°C]	Tm (°C) WT-MGS [4] [°C]	Turbidity suppression ([2]; HγD 2.5 mg/ml, 400 μM drug, 72 °C 20 min, 5% DMSO)
63	60	COC(=O)/C=C/C(C)=C\C=C\C(C)=C\C=C\C=C(C)\C=C\C=C(C)\C=C\C(=O)O [drug B, Bixin]	Medium heat shock inhibitor	–	–	–	–	–	–	–	–
–	–	Cc1cc(C(C#N)c2ccc(Cl)cc2)c(Cl)cc1NC(=O)c1cc(I)cc(I)c1O (stereo not shown) [drug C, Closantel]	Medium strong dual inhibitor	worsened HγD aggregation	no baseline change	65	73	50	69	72	–
–	–	CC(C)=CCCC1(C)C=Cc2c(O)c3c(c(CC=C(C)C)c2O1)OC12C(=CC4CC1C(C)(C)OC2(C/C=C(/C)C(=O)O)C4O)C3=O (stereo not shown) [drug D, dihydrogambogic acid]	Strong heat shock inhibitor	–	–	66	78	–	–	–	–
–	–	CC(C)=CCC[C@]1(C)C=Cc2c(O)c3c(c(CC=C(C)C)c2O1)O[C@]12C(=C[C@@H]4C[C@H]1C(C)(C)O[C@@]2(C/C=C(/C)C(=O)O)C4=O)C3=O [drug G, Gambogic acid]	Strong heat shock inhibitor	worsened HγD aggregation	no baseline change	69	75	50	70	73	markedly suppressed turbidity
38	73	O=C(O)CCCCCCCCCCCC[C@@H]1C=CCC1 [drug M, Chaulmoogric acid]	Dual heat shock inhibitor + antioxidant	–	–	–	–	48	63	68	–

SMILES	inhibition at 125 µM [2, 5] [%]	inhibition at 125 µM [2, 6] [%]	Antiaggregation activity [1]	Effect on HγD aggregation at low protein ([2]; 400 μM drug)	Effect on HγD at 2.0 mg/ml and 20 min ([2]; 400 μM drug)	inhibition at 125 µM [2, 7] [%]	inhibition at 125 µM [2, 8] [%]	Tm (°C) OPJ-MGS N-ter [3] [°C]	Tm (°C) OPJ-MGS C-ter [3] [°C]	Tm (°C) WT-MGS [4] [°C]	Turbidity suppression ([2]; HγD 2.5 mg/ml, 400 μM drug, 72 °C 20 min, 5% DMSO)
Oc1c(Cl)cc(Cl)c(Cl)c1Cc1c(O)c(Cl)cc(Cl)c1Cl [drug X, Hexachlorophene]	61	47	–	–	–	–	–	–	–	–	–
